Source: US20260114446A1, “Compositions, Methods and Devices for Control and Monitoring Insects” (Agriculture Victoria Services Pty Ltd, priority 2023, published 2026)

How the values were obtained:
Assay type in all cases: in vivo
Carpophilus truncatus [1] = experiment: Field experiment of pheromone lure septa in an almond orchard (Example 3), C. truncatus catches; conditions: septa in bucket traps with co-attractant solution (45% ethanol, isopentyl alcohol) and Dichlorvos strip; 10 replicates; 6 weeks, samples fortnightly; p<0.001
Experimental: A field experiment was designed to test the attractancy of the previously described C. truncatus Pheromone 2 under field conditions and the pheromonal (attractant) activity of newly identified Pheromone 3. […] All pheromones were tested together with a co-attractant mixture in the form of an aqueous ethanol and isopentyl alcohol solution, which acts synergistically to elicit a strong behavioural response in C. truncatus.
Pheromone test lures were loaded on white Precision Seal® rubber septa (8 mm OD, Sigma Aldrich product code: Z553913) with butylated hydroxytoluene used an antioxidant. The quantities of individual compounds applied on the septa were determined by SPME-GC-MS analyses of test septa at days 1 and 3 to produce the two pheromones in approximately equal ratios. The quantity of antioxidant was chosen based on the existing literature as 10% of the ratio of the dominant pheromone (Table 2). Hexane dilutions of the neat pheromones were prepared, and desired quantities loaded onto the septa. […]
The field trial was carried out from December 2021 in a commercial almond orchard located near Mildura, Victoria, Australia. […] Beetles present in different traps were identified and counted under a stereomicroscope. […]
Field data were analysed using a Generalized Linear Mixed Model (GLMM) fitted with a negative binomial distribution using the glmmTMB package (Brooks et al. 2019). […]

Carpophilus truncatus [2] = experiment: Two-week field trial of lure treatments (Example 4), C. truncatus catches; conditions: 20 repeats per treatment, with co-attractant, high beetle populations
Experimental: (§1) A short trial was carried out over two weeks. Treatments were randomised and replicated in 10 tree rows with approximately 50 m spacing between traps (10 rows×2 treatments—20 repeats per treatment; 3 treatments of 20 repeats is 60 traps used). The treatments are shown in Table 3: Data was analysed in a similar way to Example 3 using GLMM with trap catches as response variable, lure treatment as fixed factor and row and column as random (spatial features). Turkey's adjusted post hoc tests for multiple comparisons of a family of three estimates. The results of the mixed model are: Wald χ2=[…], p=2.64 10^−14.

[3] = system: other Carpophilus species; experiment: Two-week field trial of lure treatments (Example 4), catches of other Carpophilus species; conditions: 20 repeats per treatment, with co-attractant
Experimental: as §1

Compound	C. truncatus beetle catches (Carpophilus truncatus [1])	C. truncatus beetles caught (Carpophilus truncatus [2])	Other Carpophilus species beetles caught [3]
C/C=C(C)/C=C(C)/C=C(C)/C=C/CC [Phero 2, (E,E,E,E)-3,5,7-trimethyl-2,4,6,8-undecatetraene]	caught significantly more beetles than the commercial tri-species septa	–	–
CCCCCCCCCCCCCC=O [Phero 3, tetradecanal]	–	caught significantly less C. truncatus and other Carpophilus species beetles than Phero 2 and Phero 2+Phero 3	caught significantly less C. truncatus and other Carpophilus species beetles than Phero 2 and Phero 2+Phero 3
